Two molecules from US6368793B1, “Metabolic selection methods” (MicroGenomics, Inc., priority 1998, dated 2002) can be followed below.

Common to all, as to type: cell-based
One test relates to Klebsielia oxytoca. The test can be described thus: Compound utilization of environmental isolates (growth on minimal medium). To be noted: Kelbsiella oxytoca isolate. The procedure:
Samples from diverse natural environments were collected to use for the isolation of microbes that can utilize ascorbic acid (AsA) as the sole carbon source. No bacterial species has previously been reported to grow on AsA minimal medium.
Environmental samples were collected from freshwater lakes, lemon and orange orchards, residential backyard soils, human and animal solid wastes.
Over 100 microbial isolates, capable of forming visible colonies within 20 hours of incubation at 30° C. on M9 minimal medium containing 0.5% AsA, were selected from these samples. These 100 isolates were then screened for their ability to grow on 2-Keto-L-Gulonate (2-KLG) minimal medium.
Thus, Kelbsiella oxytoca was retained as a candidate for genetic engineering of a host strain that can use AsA under controlled conditions for the selection of cloned microbial pathways from 2-KLG to AsA.

Test [1] concerns K. oxytoca strain MGK003 cosmid clones. The test can be described thus: Growth of selected cosmid library clones of MGK003 on 2-KLG with or without IPTG. To be noted: within 20 h at 37° C. The procedure: Prior to transfection of K. oxytoca strain MGK003 with the packaging mixture, the tester strain was transformed with plasmid pCB382 expressing the E. coli lamB gene that functions as λ receptor, which appears to be absent or non-functional in most Klebsiella strains (De Vries, G. E., et al., 1984. Proc. Natl. Acad. Sci. USA 81:6080-6084). The resulting MGK003 [λ^s] strain was transfected with the packaged products as follows:
6. The remainder was centrifuged at 3000 g for 5 min and was resuspended in 1 mL of M9 minimal medium supplemented with 10 μM IPTG (IPTG concentration can be varied up to 100 μM), and aliquots (200 μL) were plated on M9 plates containing 0.5% 2-KLG and 50 μM IPTG. 7.
Plates were incubated at 37° C. for 36 h for selecting candidate pathways that would convert 2-KLG to AsA. (Alternatively, selection can be done at 30° C.)
Among 500,000 clones to which a first selection round was applied, approximately 100 colonies of various sizes appeared on 2-KLG/IPTG plates. These were re-streaked on: (i) LB-kanamycin to verify the presence of the cosmid vector; (ii) 2-KLG/IPTG; and (iii) 2-KLG lacking IPTG to determine if growth of the positive clones on 2-KLG was dependent upon the expression of AsA catabolism. […]

In a further test the test system is K. oxytoca strain MGK003. The test can be described thus: Growth of tester strain MGK003 on AsA minimal medium with or without IPTG. The source says:
To engineer K. oxytoca as a host strain for the selection of biocatalysts which produce AsA, the promoter of the yiaK-S operon was replaced with a DNA fragment that contained the trp-lac hybrid promoter of transcription, the lacO operator, and the lacI^q repressor gene (Brosius, J. 1992. Meth. Enzymol. 216:469-483). This allows the yiaK-S operon, and therefore AsA catabolism, to be turned ON and OFF in a tightly controlled manner in the presence or absence of IPTG, a non-metabolizable inducer of the lac promoter. Practically, a 5-way ligation was set up among: (i) the pMAK705 integration vector which carries a chloramphenicol resistance marker and the thermosensitive origin of replication from plasmid […] (Hamilton, C. M., et al., 1989. J. Bacteriol. 171:4617-4622); (ii) a 0.8 kb fragment containing the 5′ region of the yiaJ gene and its promoter sequences; (iii) the spectinomycin resistance marker retrieved from Staphylococcus aureus Tn554 (Murphy, E. 1985. Mol. Gen. Genet. 200:33-39) to follow integration events; (iv) the lacI^q-lacO-trc promoter fragment retrieved from pSE380 (InVitrogen, Carlsbad, Calif.); and (v) a 1 kb fragment containing the 5′ end of yiaK, including its ribosome binding site for translation initiation while excluding the promoter sequences of the yiaK-S operon (FIG. 10). […]

Regarding `O=C(O)C(=O)[C@@H](O)[C@H](O)[C@@H](O)CO` [2-KLG, 2-keto-L-gulonate], in the test with Klebsielia oxytoca, the “Utilization as sole source of carbon and energy / growth” value is reported as “could not grow on 2-KLG”. The “Growth of two retained clones” value in test [1] (2-KLG without IPTG) is on record as “not on 2-KLG without IPTG”; in test [1] (2-KLG/IPTG) it was “grew”.
With `O=C1O[C@H]([C@@H](O)CO)C(O)=C1O` [AsA, ascorbic acid], the “Utilization as sole source of carbon and energy / growth” value with Klebsielia oxytoca was “could utilize AsA as its sole source of carbon and energy”. Further, the “Growth on M9 minimal medium” value in the test on K. oxytoca strain MGK003 (MGK003, AsA 0.25% and IPTG 10 to 100 μM) is “able to grow”; in the test on K. oxytoca strain MGK003 (MGK003, AsA 0.25%, lacking IPTG), “no growth”.
